Assay: solubility of crystalline form
Format: physicochemical

CS[C@@]1(C(=O)Nc2ccc3[nH]nc(-c4ccc(OC(C)C)nc4)c3c2)CCN(CC(=O)N2CC=C(c3ccc(-c4ncn(C)n4)cc3)CC2)C1 [crystalline hydrate Form 2, (S)—N-(3-(6-isopropoxypyridin-3-yl)-1H-indazol-5-yl)-1-(2-(4-(4-(1-methyl-1H-1,2,4-triazol-3-yl)phenyl)-3,6-dihydropyridin-1(2H)-yl)-2-oxoethyl)-3-(methylthio)pyrrolidine-3-carboxamide]
solubility: poor solubility
